Assay results: US20230086703A1, “N-(4-(5-chloropyridin-3-yl)phenyl)-2-(2-(cyclopropanesulfonamido)pyrimidin-4-yl) butanamide derivatives and related compounds as human CTPS1 inhibitors for the treatment of proliferative diseases” (Step Pharma S.A.S., priority 2019, published 2023)

Molecular target: T1, human CTPS1 (Homo sapiens, UniProt P17812)
T1 construct: FLAG (with GG linker); His8 (with GG linker); purchased Proteros biostructures GmbH
T1 sequence (P17812 1-591): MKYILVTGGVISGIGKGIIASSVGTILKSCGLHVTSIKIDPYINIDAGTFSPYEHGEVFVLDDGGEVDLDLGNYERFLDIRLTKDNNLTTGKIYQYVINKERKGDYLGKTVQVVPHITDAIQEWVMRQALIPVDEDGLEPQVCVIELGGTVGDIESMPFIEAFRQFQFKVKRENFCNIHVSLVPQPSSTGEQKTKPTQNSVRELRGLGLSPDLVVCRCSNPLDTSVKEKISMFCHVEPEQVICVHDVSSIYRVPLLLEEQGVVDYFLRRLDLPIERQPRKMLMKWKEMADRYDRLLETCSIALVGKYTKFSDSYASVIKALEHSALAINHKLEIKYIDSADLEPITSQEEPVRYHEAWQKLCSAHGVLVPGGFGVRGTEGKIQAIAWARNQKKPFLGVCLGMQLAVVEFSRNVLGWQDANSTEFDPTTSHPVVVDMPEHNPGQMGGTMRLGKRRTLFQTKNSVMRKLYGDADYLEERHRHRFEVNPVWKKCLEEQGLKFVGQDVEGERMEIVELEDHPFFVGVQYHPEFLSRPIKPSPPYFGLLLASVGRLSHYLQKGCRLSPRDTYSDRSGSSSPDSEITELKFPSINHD
Test: Human CTPS1 enzyme inhibition, ADP-Glo Max assay
Format: biochemical
Settings: ADP-Glo Max assay; Table 10; read-out: Human CTPS1 Enzyme Inhibition, IC50 grouped by potency range (CTPS1)
Method: The enzyme inhibitory activities of compounds invented against the target of interest were determined using the ADP-Glo™ Max assay (Promega, UK). Assays for human CTPS1 were performed in 1× assay buffer containing 50 mM Tris, 10 mM MgCl2, 0.01% Tween-20, pH to 8.0 accordingly. Finally, immediately before use, L-cysteine was added to the 1× assay buffer to a final concentration of 2 mM. All reagents are from Sigma-Aldrich unless specified otherwise.
3× human CTPS1 protein was prepared in 1× assay buffer to the final working protein concentration required for the reaction. A 2 uL volume per well of 3× human CTPS1 protein was mixed with 2 uL per well of 3× test compound (compound prepared in 1× assay buffer to an appropriate final 3× compound concentration respective to the concentration response curve designed for the compounds under test) for 10 minutes at 25° C. […] ADP-Glo™ Max reagent was added for 60 minutes (6 μL per well) and subsequently ADP-Glo™ Max development reagent was added for 60 minutes (12 uL per well) prior to signal detection in a microplate reader (EnVision® Multilabel Reader, Perkin Elmer). Following each reagent addition over the course of the assay, assay plates were pulse centrifuged for 30 seconds at 500 rpm.
In all cases, the enzyme converts ATP to ADP and the ADP-Glo™ Max reagent subsequently depletes any remaining endogenous ATP in the reaction system. The ADP-Glo™ Max detection reagent converts the ADP that has been enzymatically produced back into ATP and using ATP as a substrate together with luciferin for the enzyme luciferase, light is generated which produces a detectable luminescence. […] The percentage inhibition produced by each concentration of compound was calculated using the equation shown below: […]

Structure (SMILES): CC(C)(C(=O)Nc1ccc(-c2cncc(OCC(F)(F)F)n2)cn1)c1csc(NS(=O)(=O)C2CC2)n1 [T109, 2-(2-(cyclopropanesulfonamido)thiazol-4-yl)-2-methyl-N-(5-(6-(2,2,2-trifluoroethoxy)pyrazin-2-yl)pyridin-2-yl)propanamide]
- IC50: < 100 nM

Structure (SMILES): CC(C)(C(=O)Nc1ncc(-c2cnccn2)cc1F)c1csc(NS(=O)(=O)C2CC2)n1 [T110, 2-(2-(cyclopropanesulfonamido)thiazol-4-yl)-N-(3-fluoro-5-(pyrazin-2-yl)pyridin-2-yl)-2-methylpropanamide]
- IC50: 100 to 1000 nM

Structure (SMILES): CCOc1cncc(-c2cnc(NC(=O)C(C)(C)c3csc(NS(=O)(=O)C4CC4)n3)c(F)c2)n1 [T111, 2-(2-(cyclopropanesulfonamido)thiazol-4-yl)-N-(5-(6-ethoxypyrazin-2-yl)-3-fluoropyridin-2-yl)-2-methylpropanamide]
- IC50: < 100 nM

Structure (SMILES): CC(C)(C(=O)Nc1ncc(-c2cncc(C(F)(F)F)n2)cc1F)c1csc(NS(=O)(=O)C2CC2)n1 [T112, 2-(2-(cyclopropanesulfonamido)thiazol-4-yl)-N-(3-fluoro-5-(6-(trifluoromethyl)pyrazin-2-yl)pyridin-2-yl)-2-methylpropanamide]
- IC50: < 100 nM

Structure (SMILES): CC(C)(C(=O)Nc1ncc(-c2cncc(C#N)n2)cc1F)c1csc(NS(=O)(=O)C2CC2)n1 [T113, N-(5-(6-cyanopyrazin-2-yl)-3-fluoropyridin-2-yl)-2-(2-(cyclopropanesulfonamido)thiazol-4-yl)-2-methylpropanamide]
- IC50: 1000 to 10000 nM

Structure (SMILES): CC(C)(C(=O)Nc1ccc(-c2cncc(OCC(F)(F)F)c2)cn1)c1csc(NS(=O)(=O)C2CC2)n1 [T114, 2-(2-(cyclopropanesulfonamido)thiazol-4-yl)-2-methyl-N-(5′-(2,2,2-trifluoroethoxy)-[3,3′-bipyridin]-6-yl)propanamide]
- IC50: 100 to 1000 nM

Structure (SMILES): CC(C)(C(=O)Nc1ccc(-c2cncc(OC(F)F)c2)cn1)c1csc(NS(=O)(=O)C2CC2)n1 [T115, 2-(2-(cyclopropanesulfonamido)thiazol-4-yl)-N-(5′-(difluoromethoxy)-[3,3′-bipyridin]-6-yl)-2-methylpropanamide]
- IC50: < 100 nM

Structure (SMILES): CC(C)(C(=O)Nc1ccc(-c2cccnc2)nc1)c1csc(NS(=O)(=O)C2CC2)n1 [T116, N-([2,3′-bipyridin]-5-yl)-2-(2-(cyclopropanesulfonamido)thiazol-4-yl)-2-methylpropanamide]
- IC50: 100 to 1000 nM

Structure (SMILES): CC(C)(C(=O)Nc1ccc(-c2cncnc2)nc1)c1csc(NS(=O)(=O)C2CC2)n1 [T117, 2-(2-(cyclopropanesulfonamido)thiazol-4-yl)-2-methyl-N-(6-(pyrimidin-5-yl)pyridin-3-yl)propanamide]
- IC50: 100 to 1000 nM

Structure (SMILES): CC(C)(C(=O)Nc1ccc(-c2cncc(OC(F)F)c2)cc1)c1csc(NS(=O)(=O)C2CC2)n1 [T118, 2-(2-(cyclopropanesulfonamido)thiazol-4-yl)-N-(4-(5-(difluoromethoxy)pyridin-3-yl)phenyl)-2-methylpropanamide]
- IC50: < 100 nM

Structure (SMILES): CCC(CC)(C(=O)Nc1ccc(-c2cncc(OC)n2)cc1)c1csc(NS(=O)(=O)C2CC2)n1 [T119, 2-(2-(cyclopropanesulfonamido)thiazol-4-yl)-2-ethyl-N-(4-(6-methoxypyrazin-2-yl)phenyl)butanamide]
- IC50: < 100 nM

Structure (SMILES): CCC(CC)(C(=O)Nc1ccc(-c2cccnc2)cc1F)c1csc(NS(=O)(=O)C2CC2)n1 [T121, 2-(2-(cyclopropanesulfonamido)thiazol-4-yl)-2-ethyl-N-(2-fluoro-4-(pyridin-3-yl)phenyl)butanamide]
- IC50: < 100 nM

Structure (SMILES): CCC(CC)(C(=O)Nc1ccc(-c2cnccn2)cc1)c1csc(NS(=O)(=O)C2CC2)n1 [T122, 2-(2-(cyclopropanesulfonamido)thiazol-4-yl)-2-ethyl-N-(4-(pyrazin-2-yl)phenyl)butanamide]
- IC50: < 100 nM

Structure (SMILES): CCCOc1cncc(-c2ccc(NC(=O)C(CC)(CC)c3csc(NS(=O)(=O)C4CC4)n3)cc2)n1 [T123, 2-(2-(cyclopropanesulfonamido)thiazol-4-yl)-2-ethyl-N-(4-(6-propoxypyrazin-2-yl)phenyl)butanamide]
- IC50: < 100 nM

Structure (SMILES): CCOc1cncc(-c2ccc(NC(=O)C(C)(C)c3csc(NS(=O)(=O)C4CC4)n3)c(F)c2)c1 [T125, 2-(2-(cyclopropanesulfonamido)thiazol-4-yl)-N-(4-(5-ethoxypyridin-3-yl)-2-fluorophenyl)-2-methylpropanamide]
- IC50: < 100 nM

Structure (SMILES): CC(C)(C(=O)Nc1ccc(-c2cncc(F)c2)cc1F)c1csc(NS(=O)(=O)C2CC2)n1 [T126, 2-(2-(cyclopropanesulfonamido)thiazol-4-yl)-N-(2-fluoro-4-(5-fluoropyridin-3-yl)phenyl)-2-methylpropanamide]
- IC50: < 100 nM

Structure (SMILES): CC(C)(C(=O)Nc1ccc(-c2cncc(OCC(F)(F)F)n2)cc1)c1csc(NS(=O)(=O)C2CC2)n1 [T127, 2-(2-(cyclopropanesulfonamido)thiazol-4-yl)-2-methyl-N-(4-(6-(2,2,2-trifluoroethoxy)pyrazin-2-yl)phenyl)propanamide]
- IC50: < 100 nM

Structure (SMILES): CC(C)(C(=O)Nc1ccc(-c2cncc(Cl)c2)cc1F)c1csc(NS(=O)(=O)C2CC2)n1 [T128, N-(4-(5-chloropyridin-3-yl)-2-fluorophenyl)-2-(2-(cyclopropanesulfonamido)thiazol-4-yl)-2-methylpropanamide]
- IC50: < 100 nM

Structure (SMILES): CC(C)(C(=O)Nc1ccc(-c2cncc(C#N)c2)cc1F)c1csc(NS(=O)(=O)C2CC2)n1 [T129, N-(4-(5-cyanopyridin-3-yl)-2-fluorophenyl)-2-(2-(cyclopropanesulfonamido)thiazol-4-yl)-2-methylpropanamide]
- IC50: < 100 nM

Structure (SMILES): COc1cncc(-c2ccc(NC(=O)C3(c4csc(NS(=O)(=O)C5CC5)n4)CCCC3)cc2)n1 [T130, 1-(2-(cyclopropanesulfonamido)thiazol-4-yl)-N-(4-(6-methoxypyrazin-2-yl)phenyl)cyclopentane-1-carboxamide]
- IC50: < 100 nM

Structure (SMILES): CC(C)(C(=O)Nc1ccc(-c2cncc(OCC(F)(F)F)n2)cc1F)c1csc(NS(=O)(=O)C2CC2)n1 [T131, 2-(2-(cyclopropanesulfonamido)thiazol-4-yl)-N-(2-fluoro-4-(6-(2,2,2-trifluoroethoxy)pyrazin-2-yl)phenyl)-2-methylpropanamide]
- IC50: < 100 nM

Structure (SMILES): CC(C)(C(=O)Nc1ccc(-c2cncc(OCC(F)(F)F)c2)cc1F)c1csc(NS(=O)(=O)C2CC2)n1 [T132, 2-(2-(cyclopropanesulfonamido)thiazol-4-yl)-N-(2-fluoro-4-(5-(2,2,2-trifluoroethoxy)pyridin-3-yl)phenyl)-2-methylpropanamide]
- IC50: 100 to 1000 nM

Structure (SMILES): CCOc1cncc(-c2ccc(NC(=O)C(C)(C)c3csc(NS(=O)(=O)C4CC4)n3)c(F)c2)n1 [T134, 2-(2-(cyclopropanesulfonamido)thiazol-4-yl)-N-(4-(6-ethoxypyrazin-2-yl)-2-fluorophenyl)-2-methylpropanamide]
- IC50: < 100 nM

Structure (SMILES): CC(C)(C(=O)Nc1ccc(-c2cncc(OCC(F)(F)F)c2)cc1)c1csc(NS(=O)(=O)C2CC2)n1 [T135, 2-(2-(cyclopropanesulfonamido)thiazol-4-yl)-2-methyl-N-(4-(5-(2,2,2-trifluoroethoxy)pyridin-3-yl)phenyl)propanamide]
- IC50: 100 to 1000 nM

Structure (SMILES): C#Cc1cncc(-c2ccc(NC(=O)C(C)(C)c3csc(NS(=O)(=O)C4CC4)n3)cc2)n1 [T136, 2-(2-(cyclopropanesulfonamido)thiazol-4-yl)-N-(4-(6-ethynylpyrazin-2-yl)phenyl)-2-methylpropanamide]
- IC50: < 100 nM

Structure (SMILES): CCOc1cncc(-c2ccc(NC(=O)C(C)(C)c3csc(NS(=O)(=O)C4CC4)n3)c(C)c2)n1 [T137, 2-(2-(cyclopropanesulfonamido)thiazol-4-yl)-N-(4-(6-ethoxypyrazin-2-yl)-2-methylphenyl)-2-methylpropanamide]
- IC50: < 100 nM

Structure (SMILES): Cc1cc(-c2cncc(Cl)n2)ccc1NC(=O)C(C)(C)c1csc(NS(=O)(=O)C2CC2)n1 [T138, N-(4-(6-chloropyrazin-2-yl)-2-methylphenyl)-2-(2-(cyclopropanesulfonamido)thiazol-4-yl)-2-methylpropanamide]
- IC50: < 100 nM
